Test results as given in US6090605A, “Purified porcine kidney L-fucose kinase” (The Board of Trustees of the University of Arkansas, priority 1998, dated 2000).

Experiments:
[1] = target: T1, pig kidney fucokinase (110 kDa band) (Sus scrofa, UniProt I3LTC2); experiment: Photoaffinity labeling of the fucokinase with 8-azido-ATP[32P]; format: binding; conditions: unlabeled ATP 0.3-1.2 mM; GTP, ITP 0.6 and 1.2 mM
T1 construct: L-Fucokinase was purified to apparent homogeneity from the cytosolic fraction of pig kidney; from tissue; host or cells: pig kidney, cytosolic fraction
T1 sequence (I3LTC2 1-1083): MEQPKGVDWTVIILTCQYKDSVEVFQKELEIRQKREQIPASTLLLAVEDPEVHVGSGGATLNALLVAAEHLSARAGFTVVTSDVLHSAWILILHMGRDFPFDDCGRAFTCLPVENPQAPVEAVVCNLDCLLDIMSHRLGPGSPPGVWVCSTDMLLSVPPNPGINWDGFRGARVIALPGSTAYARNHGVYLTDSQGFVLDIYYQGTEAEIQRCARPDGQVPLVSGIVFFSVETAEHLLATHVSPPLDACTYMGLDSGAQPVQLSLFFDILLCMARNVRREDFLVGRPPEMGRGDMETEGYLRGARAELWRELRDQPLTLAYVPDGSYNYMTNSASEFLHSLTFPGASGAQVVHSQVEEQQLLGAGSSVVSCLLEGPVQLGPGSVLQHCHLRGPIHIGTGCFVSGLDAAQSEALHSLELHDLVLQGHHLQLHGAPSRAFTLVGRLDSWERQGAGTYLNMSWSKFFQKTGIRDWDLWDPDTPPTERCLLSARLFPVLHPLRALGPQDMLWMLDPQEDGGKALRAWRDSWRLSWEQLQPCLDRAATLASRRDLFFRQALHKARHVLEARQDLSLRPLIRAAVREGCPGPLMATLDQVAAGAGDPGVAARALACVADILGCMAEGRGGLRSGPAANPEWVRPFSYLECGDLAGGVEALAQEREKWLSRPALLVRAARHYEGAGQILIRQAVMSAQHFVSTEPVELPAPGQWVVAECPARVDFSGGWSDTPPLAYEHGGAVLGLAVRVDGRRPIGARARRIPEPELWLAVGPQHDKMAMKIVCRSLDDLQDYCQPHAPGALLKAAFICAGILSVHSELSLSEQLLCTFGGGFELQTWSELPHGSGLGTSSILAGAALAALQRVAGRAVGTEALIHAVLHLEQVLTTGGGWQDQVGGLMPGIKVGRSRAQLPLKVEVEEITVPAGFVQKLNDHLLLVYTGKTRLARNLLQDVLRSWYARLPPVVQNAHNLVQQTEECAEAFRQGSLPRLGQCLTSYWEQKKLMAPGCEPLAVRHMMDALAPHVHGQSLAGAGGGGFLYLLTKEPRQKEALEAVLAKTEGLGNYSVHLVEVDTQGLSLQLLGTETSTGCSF
Method: The purified enzyme was incubated for 20 seconds with azido-ATP[^32 P], and the mixture was exposed to UV for 90 seconds. The reaction was stopped by adding loading buffer and the mixture subjected to SDS-PAGE. Radioactive bands were detected by exposure to film. Lanes are as follows: Lane 1, Probe+enzyme, but no UV; Lane 2, Probe+enzyme+UV; Lanes 3 through 6. Probe+enzyme+0.3, 0.6, 0.9, and 1.2 mM ATP+exposure to UV light; lanes 7 and 8, 0.6 and 1.2 mM GTP+probe+exposure to UV light: lanes 9 and 10, 0.6 and 1.2 mM ITP+probe+exposure to UV light. In lanes 11 and 12, the enzyme was incubated with N3 -GTP[^32 P ] and then exposed to UV light (lane 12) or not exposed to UV light (lane 11). Lane 13 is a control of enzyme+N3 -ATP[^32 P]+exposure to UV light.
Enzyme, at various stages of purity, was mixed with 8-azido-ATP[^32 P] in buffer, and allowed to incubate for 20 sec. in an ice bath. 8-Azido-ATP[^32 P] was prepared as previously described (16). After incubation, the reaction mixture was exposed to short wave UV light for about 90 sec. to activate the azido group, and the protein was subjected to SDS gel electrophoresis to separate the proteins. The gels were dried and exposed to film to locate the radioactive bands and were also stained with Coomassie blue to locate the various proteins. The specificity of the labeling was determined by examining the effect of various concentrations of unlabeled ATP or other nucleotides on the labeling of the protein by N3 -ATP[^32 P]. Various controls were also run, such as one in which exposure to UV was omitted.
Lanes 11-13 of FIG. 3 show the results of another experiment designed to determine whether 8-N3 -GTP[^32 P] could label the fucokinase. […] These experiments indicate that the fucokinase is quite specific for ATP.

[2] = test system: pig liver L-fucokinase preparation; conditions: cited from earlier work
pig kidney fucokinase [3] = target: T2, pig kidney fucokinase (Sus scrofa, UniProt I3LTC2); experiment: Specificity of fucokinase for phosphate donor (nucleotides); format: biochemical; conditions: nucleotide added at 1 mM as phosphate donor
T2 construct: L-Fucokinase was purified to apparent homogeneity from the cytosolic fraction of pig kidney; from tissue; host or cells: pig kidney, cytosolic fraction
T2 sequence (I3LTC2 1-1083): T1 sequence (I3LTC2 1-1083)
Method: (§1) Fucokinase activity was assayed by measuring the production of L-fucose-1-Pfrom [^3 H]L-fucose and ATP. The incubation mixtures contained the following components (final concentrations) in a total volume of 150 μl: L-fucose, 0.1 mM; ATP, 5 mM; MgSO4, 5 mM; Tris-HCl buffer, pH 8.0, 65 mM; and various amounts of enzyme at the different stages of purification. Incubations were at 37° C. for 10 minutes, and reactions were terminated by heating the reaction mixtures in a boiling water bath for 1 minute. The incubation mixtures were then applied to a column of DE-52 contained in a Pasteur pipette, and the column was washed with at least 5 column volumes of 10 mM (NH4)HCO3 to remove the unbound material. The [^3 H]fucose-1-P was then eluted with 500 mM (NH4)HCO3. Aliquots of the eluates were assayed for their radioactive content by subjecting a portion to scintillation counting.
The specificity of the nucleoside triphosphate was also examined by testing the ability of a variety of nucleotides to serve as phosphate donors in the phosphorylation of [^3 H]L-fucose. […] In addition, no activity is observed with any nucleoside diphosphates or monophosphates.

pig kidney fucokinase [4] = target: T2, pig kidney fucokinase; experiment: Inhibition of fucokinase by GDP-L-fucose and other GDP-linked sugars; format: biochemical
Method: as §1
It can be seen that the amount of inhibition of fucokinase increased with increasing amounts of GDP-L-fucose, and the Ki for GDP-L-fucose was estimated to be about 10 μM.

pig kidney fucokinase [5] = target: T2, pig kidney fucokinase; experiment: Sugar specificity of purified fucokinase (radiolabeled sugars as phosphate acceptors); format: biochemical; conditions: for activity as phosphate acceptor (in words): purified enzyme; for Specific Activity: radiolabeled sugar 100 μM as phosphate acceptor
Method: as §1
The specificity of the kinase for various sugar substrates was examined in two different ways. In the first set of experiments, various radiolabeled sugars were tested as phosphate acceptors for the purified enzyme using the ion-exchange chromatography method for assay of activity. […] D-Arabinose, which has the same configuration at carbons 1 through 4 as L-fucose, was also a reasonable substrate for phosphorylation, and was about 10% as effective as L-fucose. On the other hand, all of the other sugars were ineffective as phosphate acceptors.

pig kidney fucokinase [6] = target: T2, pig kidney fucokinase; experiment: Inhibition of [3H]L-fucose phosphorylation by unlabeled monosaccharides; format: biochemical; conditions: unlabeled monosaccharide 500 μM; radiolabeled L-fucose substrate 100 μM
Method: as §1
Although it was possible to get a reasonable assessment of the sugar specificity of the kinase from the above experiment, it was not possible to test sugars such as D-fucose, since these sugars are not available in radioactive form. Thus, these unlabeled sugars were tested for their ability to inhibit the phosphorylation of [^3 H]L-fucose. The rationale for this experiment is that a sugar that inhibits the phosphorylation of L-fucose would probably compete with L-fucose for the phosphorylation (i.e., active) site.

[7] = test system: pig liver L-fucokinase preparation; conditions: cited from earlier work; remark: listed apart in the source

Compound | inhibition of the fucokinase (in words) (pig kidney fucokinase [4]) | activity as phosphate acceptor (in words) (pig kidney fucokinase [5]) | Specific Activity (pig kidney fucokinase [5]) [nmole/mg protein] | Relative Activity (%) (pig kidney fucokinase [6]) | rate of phosphorylation compared with L-fucose (in words) [7] | also measured
Nc1nc2c(ncn2[C@@H]2O[C@H](COP(=O)(O)OP(=O)(O)OP(=O)(O)O)[C@@H](O)[C@H]2O)c(=O)[nH]1 [GTP] |  |  |  |  |  | inhibition of labeling of the 110 kDa band by N3-ATP[32P] (in words) [1]: considerably less effective in inhibiting; use as phosphate donor (in words) [2]: could also use; Specific Activity (pig kidney fucokinase [3]): 0.09 nmoles/mg protein/10 min
Nc1nc2c(ncn2[C@@H]2O[C@H](COP(=O)(O)OP(=O)(O)OC3O[C@H](CO)[C@@H](O)[C@H](O)[C@H]3O)[C@@H](O)[C@H]2O)c(=O)[nH]1 (stereo partly drawn) [GDP-D-glucose] | did not inhibit |  |  |  |  | 
O=C[C@H](O)[C@@H](O)[C@H](O)[C@H](O)CO [D-glucose] |  | does not phosphorylate | 0.3 | 100 | about the same rate or better | phosphorylation of sugar by the about 70-fold purified preparation (in words) [2]: considerable activity for phosphorylating
O=c1[nH]cnc2c1ncn2[C@@H]1O[C@H](COP(=O)(O)OP(=O)(O)OP(=O)(O)O)[C@@H](O)[C@H]1O [ITP] |  |  |  |  |  | inhibition of labeling of the 110 kDa band by N3-ATP[32P] (in words) [1]: considerably less effective in inhibiting; Specific Activity (pig kidney fucokinase [3]): 0.10 nmoles/mg protein/10 min
C[C@@H]1O[C@H](OP(=O)(O)O)[C@@H](O)[C@H](O)[C@@H]1O [L-fucose-1-P] | did not inhibit |  |  |  |  | 
Nc1nc2c(ncn2[C@@H]2O[C@H](COP(=O)(O)OP(=O)(O)O[C@H]3O[C@H](CO)[C@@H](O)[C@H](O)[C@@H]3O)[C@@H](O)[C@H]2O)c(=O)[nH]1 [GDP-D-mannose] | did not inhibit |  |  |  |  | 
C[C@@H]1O[C@H](OP(=O)(O)OP(=O)(O)OC[C@H]2O[C@@H](n3cnc4c(=O)[nH]c(N)nc43)[C@H](O)[C@@H]2O)[C@@H](O)[C@H](O)[C@@H]1O [GDP-L-fucose] |  |  |  |  |  | Ki (pig kidney fucokinase [4]; 100 μM [3H]fucose, 5 mM ATP, 5 mM Mg++, pH 8.0): ~10 µM
O=C[C@@H](O)[C@@H](O)[C@H](O)[C@H](O)CO [D-mannose] |  | does not phosphorylate | 0 | 100 | about the same rate or better | 
O=C[C@H](O)[C@@H](O)[C@@H](O)[C@H](O)CO [D-galactose] |  | does not phosphorylate | 0 | 100 | about the same rate or better | 
